Measurements as given in paper PMC10489980, “Design of Potent and Salt-Insensitive Antimicrobial Branched Peptides” (Polymers, 2023).
Where two headings read alike, the source gives them in different places. Residues, ends and D or L forms follow the SMILES beside them.

Assays:
Assay type in all cases: cell-based
[1] = system: Micrococcus luteus ATCC 49,732
Text: (§1) Ten organisms obtained from the American Type Culture Collection (ATCC; Rockville, MD) were used for antimicrobial assays. Four Gram-negative bacteria included Escherichia coli ATCC 25922, Pseudomonas aeruginosa ATCC 27853, Klebsiella oxytoca ATCC 49131, and Proteus vulgaris ATCC 49132. The three Gram-positive bacteria were Staphylococcus aureus 29213, Micrococcus luteus ATCC 49,732, and Enterococcus faecalis ATCC 29212. The three fungi were Candida albicans ATCC 37092, Candida kefyr ATCC 37095, and Candida tropicalis ATCC 37097. The clinical isolates were obtained from Singapore General Hospital (SGH). They are Enterococcus faecium, Staphylococcus aureus, Klebsiella pneumoniae, Acinetobacter baumannii, Pseudomonas aeruginosa, and Enterobacter species. The strains were incubated in trypticase soy broth (TSB), which was prepared in double distilled water and autoclaved for sterilization. TSB was purchased from Becton-Dickinson (Cockeysville, MD, USA).
(§2) Antimicrobial Assays. A sensitive and reproducible two-stage radial diffusion antimicrobial assay of Lehrer et al. was employed. A 1–4 × 10^6 colony-forming unit/mL of the test organism was mixed with 10 mL of molten underlay gel solution and poured into Petri dishes to form a uniform layer. The gel solution consisted of 10 mM sodium phosphate buffer, 0.03% TSB, and 0.02% Tween-20, with the addition of 100 mM NaCl in the case of high-salt conditions. Upon gel solidification, gel wells were made by a 3-mm diameter template in an evenly spaced array. A 5 µL aliquot of a serial half-log dilution of test peptides at seven concentrations was added to each well after removal of gel plugs. The dishes were incubated at 37 °C for 3 h to allow peptide diffusion into the underlay gels. Gels were overlaid with 10 mL of 1% agarose in 6% TSB (wt/vol). After additional incubation at 37 °C for 16–24 h, the diameter of the clear zone surrounding the wells (colony-free) was measured under a microscope. Antimicrobial activities were expressed in units (0.1 mm = 1 unit), and the MICs (in µM) were determined from the x-intercepts of the dose-response curves. Experiments were performed in triplicates.

[2] = system: Enterococcus faecalis ATCC 29212
Text: as §1, §2

[3] = system: Proteus vulgaris ATCC 49132
Text: as §1, §2

[4] = system: Escherichia coli ATCC 25922
Text: as §1, §2

[5] = system: Candida tropicalis ATCC 37097
Text: as §1, §2

[6] = system: Pseudomonas aeruginosa ATCC 27853
Text: as §1, §2

Candida kefyr ATCC 37095 = system: Candida kefyr ATCC 37095
Text: as §1, §2

[7] = system: Klebsiella oxytoca ATCC 49131
Text: as §1, §2

[8] = system: Staphylococcus aureus 29213
Text: as §1, §2

[9] = system: Candida albicans ATCC 37092
Text: as §1, §2

MIC, M. luteus, H-Salt ([1]; ATCC 49, 3 h)	MIC, M. luteus, L-Salt ([1]; ATCC 49, 3 h)	MIC, E. faecalis, H-Salt ([2]; ATCC 29212, 3 h)	MIC, E. faecalis, L-Salt ([2]; ATCC 29212, 3 h)	MIC, P. vulgaris, H-Salt ([3]; ATCC 49132, 3 h)	MIC, P. vulgaris, L-Salt ([3]; ATCC 49132, 3 h)	MIC, E. coli, H-Salt ([4]; ATCC 25922, 3 h)	MIC, E. coli, L-Salt ([4]; ATCC 25922, 3 h)	MIC, C. tropicalis, H-Salt ([5]; ATCC 37097, 3 h)	MIC, C. tropicalis, L-Salt ([5]; ATCC 37097, 3 h)	MIC, P. aeruginosa, H-Salt ([6]; ATCC 27853, 3 h)	MIC, P. aeruginosa, L-Salt ([6]; ATCC 27853, 3 h)	MIC, C. kefyr, H-Salt (Candida kefyr ATCC 37095; ATCC 37095, 3 h)	MIC, C. kefyr, L-Salt (Candida kefyr ATCC 37095; ATCC 37095, 3 h)	MIC, K. oxytoca, H-Salt ([7]; ATCC 49131, 3 h)	MIC, K. oxytoca, L-Salt ([7]; ATCC 49131, 3 h)	MIC, S. aureus, H-Salt ([8]; 29213, 3 h)	MIC, S. aureus, L-Salt ([8]; 29213, 3 h)	MIC, C. albicans, H-Salt ([9]; ATCC 37092, 3 h)	MIC, C. albicans, L-Salt ([9]; ATCC 37092, 3 h)	SMILES	further results
0.8 µM	0.7 µM	1.3 µM	1.0 µM	1.0 µM	0.6 µM	0.8 µM	0.7 µM	0.6 µM	1.1 µM	0.7 µM	0.9 µM	0.7 µM	0.8 µM	0.8 µM	0.7 µM	0.6 µM	0.6 µM	0.7 µM	1.0 µM	CC(=O)N[C@@H](CCCCNC(=O)[C@H](CCCNC(=N)N)NC(=O)[C@H](Cc1ccc(O)cc1)NC(=O)[C@H](CC(C)C)NC(=O)[C@@H](N)CCCNC(=N)N)C(=O)N[C@@H](CCCCNC(=O)[C@H](CCCNC(=N)N)NC(=O)[C@H](Cc1ccc(O)cc1)NC(=O)[C@H](CC(C)C)NC(=O)[C@@H](N)CCCNC(=N)N)C(=O)N[C@@H](CCCCNC(=O)[C@H](CCCNC(=N)N)NC(=O)[C@H](Cc1ccc(O)cc1)NC(=O)[C@H](CC(C)C)NC(=O)[C@@H](N)CCCNC(=N)N)C(N)=O [K3R]	
																				CC(C)C[C@H](NC(=O)[C@@H](N)CCCNC(=N)N)C(=O)N[C@@H](Cc1ccc(O)cc1)C(=O)N[C@@H](CCCNC(=N)N)C(=O)NCCCC[C@H](NC(=O)[C@H](CCCCNC(=O)[C@H](CCCNC(=N)N)NC(=O)[C@H](Cc1ccc(O)cc1)NC(=O)[C@H](CC(C)C)NC(=O)[C@@H](N)CCCNC(=N)N)NC(=O)[C@H](CCCCNC(=O)[C@H](CCCNC(=N)N)NC(=O)[C@H](Cc1ccc(O)cc1)NC(=O)[C@H](CC(C)C)NC(=O)[C@@H](N)CCCNC(=N)N)NC(=O)[C@H](CCCCNC(=O)[C@H](CCCNC(=N)N)NC(=O)[C@H](Cc1ccc(O)cc1)NC(=O)[C@H](CC(C)C)NC(=O)[C@@H](N)CCCNC(=N)N)NC(=O)OCC1c2ccccc2-c2ccccc21)C(N)=O [K4R]	MIC, M. luteus, H-Salt ([1]; ATCC 49,732, radial diffusion assay, high-salt (100 mM NaCl), triplicates): 1.0 µM; MIC, M. luteus, L-Salt ([1]; ATCC 49,732, radial diffusion assay, low-salt (without NaCl), triplicates): 0.6 µM; MIC, E. faecalis, H-Salt ([2]; ATCC 29212, radial diffusion assay, high-salt (100 mM NaCl), triplicates): 1.5 µM; MIC, E. faecalis, L-Salt ([2]; ATCC 29212, radial diffusion assay, low-salt (without NaCl), triplicates): 0.5 µM; MIC, P. vulgaris, H-Salt ([3]; ATCC 49132, radial diffusion assay, high-salt (100 mM NaCl), triplicates): 1.0 µM; MIC, P. vulgaris, L-Salt ([3]; ATCC 49132, radial diffusion assay, low-salt (without NaCl), triplicates): 1.1 µM; MIC, E. coli, H-Salt ([4]; ATCC 25922, two-stage radial diffusion assay, high-salt (underlay gel 10 mM sodium phosphate, 0.03% TSB, 0.02% Tween-20, with 100 mM NaCl), 37 °C, x-intercept of dose-response curve, triplicates): 0.7 µM; MIC, E. coli, L-Salt ([4]; ATCC 25922, two-stage radial diffusion assay, low-salt (underlay gel 10 mM sodium phosphate, 0.03% TSB, 0.02% Tween-20, without NaCl), 37 °C, x-intercept of dose-response curve, triplicates): 0.7 µM; MIC, C. tropicalis, H-Salt ([5]; ATCC 37097, radial diffusion assay, high-salt (100 mM NaCl), triplicates): 1.2 µM; MIC, C. tropicalis, L-Salt ([5]; ATCC 37097, radial diffusion assay, low-salt (without NaCl), triplicates): 1.5 µM; MIC, P. aeruginosa, H-Salt ([6]; ATCC 27853, radial diffusion assay, high-salt (100 mM NaCl), triplicates): 0.9 µM; MIC, P. aeruginosa, L-Salt ([6]; ATCC 27853, radial diffusion assay, low-salt (without NaCl), triplicates): 0.8 µM; MIC, C. kefyr, H-Salt (Candida kefyr ATCC 37095; ATCC 37095, radial diffusion assay, high-salt (100 mM NaCl), triplicates): 0.9 µM; MIC, C. kefyr, L-Salt (Candida kefyr ATCC 37095; ATCC 37095, radial diffusion assay, low-salt (without NaCl), triplicates): 0.9 µM; MIC, K. oxytoca, H-Salt ([7]; ATCC 49131, radial diffusion assay, high-salt (100 mM NaCl), triplicates): 1.2 µM; MIC, K. oxytoca, L-Salt ([7]; ATCC 49131, radial diffusion assay, low-salt (without NaCl), triplicates): 1.3 µM; MIC, S. aureus, H-Salt ([8]; strain 29213, radial diffusion assay, high-salt (100 mM NaCl), triplicates): 0.9 µM; MIC, S. aureus, L-Salt ([8]; strain 29213, radial diffusion assay, low-salt (without NaCl), triplicates): 0.8 µM; MIC, C. albicans, H-Salt ([9]; ATCC 37092, radial diffusion assay, high-salt (100 mM NaCl), triplicates): 0.8 µM; MIC, C. albicans, L-Salt ([9]; ATCC 37092, radial diffusion assay, low-salt (without NaCl), triplicates): 0.7 µM
0.8 µM	0.6 µM	1.4 µM	1.3 µM	0.7 µM	1.2 µM	0.6 µM	0.7 µM	1.3 µM	1.1 µM	0.8 µM	0.8 µM	0.9 µM	0.9 µM	1.3 µM	0.9 µM	0.7 µM	0.8 µM	0.8 µM	0.7 µM	CC(C)C[C@H](NC(=O)[C@@H](N)CCCNC(=N)N)C(=O)N[C@@H](Cc1ccc(O)cc1)C(=O)N[C@@H](CCCNC(=N)N)C(=O)NCCCC[C@H](NC(=O)[C@H](CCCCNC(=O)[C@H](CCCNC(=N)N)NC(=O)[C@H](Cc1ccc(O)cc1)NC(=O)[C@H](CC(C)C)NC(=O)[C@@H](N)CCCNC(=N)N)NC(=O)[C@H](CCCCNC(=O)[C@H](CCCNC(=N)N)NC(=O)[C@H](Cc1ccc(O)cc1)NC(=O)[C@H](CC(C)C)NC(=O)[C@@H](N)CCCNC(=N)N)NC(=O)[C@H](CCCCNC(=O)[C@H](CCCNC(=N)N)NC(=O)[C@H](Cc1ccc(O)cc1)NC(=O)[C@H](CC(C)C)NC(=O)[C@@H](N)CCCNC(=N)N)NC(=O)[C@H](CCCNC(=N)N)NC(=O)[C@H](Cc1ccc(O)cc1)NC(=O)[C@H](CC(C)C)NC(=O)[C@@H](N)CCCNC(=N)N)C(N)=O [K5R] (HELM PEPTIDE1{R.L.Y.R.K.K.K.K.[am]}|PEPTIDE2{R.L.Y.R}|PEPTIDE3{R.L.Y.R}|PEPTIDE4{R.L.Y.R}|PEPTIDE5{R.L.Y.R}$PEPTIDE1,PEPTIDE2,8:R3-4:R2|PEPTIDE1,PEPTIDE3,7:R3-4:R2|PEPTIDE1,PEPTIDE4,6:R3-4:R2|PEPTIDE1,PEPTIDE5,5:R3-4:R2$$$V2.0; N-terminus assumed)	
16.4 µM	5.4 µM	> 500 µM	49.8 µM	24.6 µM	6.9 µM	8.7 µM	0.9 µM	1.9 µM	2.1 µM	8.9 µM	1.9 µM	1.4 µM	0.8 µM	1.7 µM	1.7 µM	93.4 µM	9.6 µM	18.2 µM	6.4 µM	CC(=O)N[C@@H](CCCNC(=O)[C@H](CCCNC(=N)N)NC(=O)[C@H](Cc1ccc(O)cc1)NC(=O)[C@H](CC(C)C)NC(=O)[C@@H](N)CCCNC(=N)N)C(=O)N[C@@H](CCCNC(=O)[C@H](CCCNC(=N)N)NC(=O)[C@H](Cc1ccc(O)cc1)NC(=O)[C@H](CC(C)C)NC(=O)[C@@H](N)CCCNC(=N)N)C(=O)N[C@@H](CCCNC(=O)[C@H](CCCNC(=N)N)NC(=O)[C@H](Cc1ccc(O)cc1)NC(=O)[C@H](CC(C)C)NC(=O)[C@@H](N)CCCNC(=N)N)C(N)=O [O3R]	
